Results taken from patent US20240287108A1, “nSMASE2 INHIBITOR PRODRUGS WITH ENHANCED ORAL AND BRAIN EXPOSURES” (The Johns Hopkins University, priority 2021, published 2024).
Where two headings read alike, the source gives them in different places.

Experiments:
[1] = in vivo pharmacokinetic studies in mice (Example 1); parameters: species or system mouse; settings: mice; for AUC / Tmax / Cmax: po
Experimental: 1.2.1 In vitro metabolic stability assessment. In vitro metabolic stability assessment was performed using mouse plasma, and liver homogenates. For the liver homogenates, washed tissues were diluted 10-fold in 0.1 M potassium phosphate buffer and homogenized using a probe sonicator. To evaluate the stability of the intact prodrug over time, each of the tissue matrix were aliquoted to 1 mL and then spiked with 10 μM of corresponding prodrugs followed by incubation in an orbital shaker at 37° C. for 1 h (in triplicate). Sample from each incubation at predetermined time points (0 min, and 1 h) was quenched with three volumes of acetonitrile containing the internal standard (IS: losartan: 0.5 μm). Samples were vortex-mixed for 30 secs and centrifuged at 10,000 RPM for 10 min at 4° C. Disappearance of the intact compound was measured using liquid chromatography tandem mass spectrometry (LC-MS/MS). 1.2.2 In vivo pharmacokinetic studies in mice. Male CD-1 mice (n=3) were used to study the pharmacokinetic profiles of representive prodrug compounds. […] Blood and brain were collected after sacrificing the mice at predetermined time points. Plasma was harvested from blood by centrifugation at 3,000 RPM for 15 min and stored at −80° C. Brain tissues were harvested following blood collection and immediately snap frozen in liquid nitrogen and stored at −80° C. until LC-MS/MS analysis. […] Brain tissues were diluted 1:5 w/v with acetonitrile containing losartan (0.5 μm) and homogenized, followed by vortex-mixing and centrifugation at 10,000 RPM for 10 min at 4° C. A 50 μL aliquot of the supernatant was diluted with 50 μL of water and transferred to 250 μL polypropylene autosampler vials sealed with teflon caps. Then, 2 μL of the sample was injected into the LC-MS/MS system for analysis.

[2] = in vitro stability in CES1−/− mouse plasma; format: in vitro ADME; settings: 10 μM
Experimental: All synthesized prodrugs were next screened for in vitro stability in carboxylesterase 1 knockout (CES1^−/−) mouse plasma, as well as CES1^−/− mouse brain and liver homogenates (Table 2-1). We have previously reported that CES1^−/− mouse model recapitulates human prodrug metabolism. Tenora et al., 2019.
(§1) Zimmermann et al., 2018. For the tissue homogenates, washed tissues were diluted 10-fold in 0.1 M potassium phosphate buffer and homogenized using a probe sonicator. To evaluate the stability of the intact prodrug over time, each of the crude homogenates and plasma were aliquoted to 1 mL and then spiked with a final assay concentration of 10 μM of each prodrug followed by incubation in an orbital shaker at 37° C. for 1 h (in triplicate). Sample from each incubation at predetermined time points (0 min, and 1 h) was quenched with three volumes of acetonitrile containing the internal standard (IS; losartan: 0.5 μm). Samples were vortex-mixed for 30 secs and centrifuged at 10,000×g for 10 min at 4° C. Disappearance of intact prodrugs from these samples were performed on a Dionex ultra-high-performance LC system coupled with Q Exactive Focus orbitrap mass spectrometer (Thermo Fisher Scientific Inc., Waltham MA). The separation of analytes was achieved using the Agilent Eclipse Plus column (100×2.1 mm i.d.; maintained at 35° C.) packed with a 1.8 μm C18 stationary phase. The mobile phase consisted of 0.1% formic acid in water and 0.1% formic acid in acetonitrile. Pumps were operated at a flow rate of 0.4 mL/min for 9 min using gradient elution. The mass spectrometer controlled by Xcalibur software 4.0.27.13 (Thermo Scientific) was operated with a heated electrospray ionization (HESI) ion source in positive ionization mode. Quantification of the prodrugs were performed in the full-scan mode (from m/z 50 to 1600) by comparing t=0 samples with t=60 min samples.

[3] = in vitro stability in CES1−/− mouse liver homogenates; format: in vitro ADME; settings: CES1−/− mouse liver homogenate, 10 μM, 37° C.
Experimental: (§2) All synthesized prodrugs were next screened for in vitro stability in carboxylesterase 1 knockout (CES1^−/−) mouse plasma, as well as CES1^−/− mouse brain and liver homogenates (Table 2-1). We have previously reported that CES1^−/− mouse model recapitulates human prodrug metabolism.
as §1, with “For” for “Zimmermann et al., 2018. For”, “The separation of analytes was achieved using the Agilent Eclipse Plus column (100×2.1 mm i.d.; maintained at 35° C.) packed with a 1.8 μm C18 stationary phase.” left out

[4] = in vitro stability in CES1−/− mouse brain homogenates; format: in vitro ADME; settings: CES1−/− mouse brain homogenate, 10 μM, 37° C.
Experimental: as §2
as §1, with “For” for “Zimmermann et al., 2018. For”, “The separation of analytes was achieved using the Agilent Eclipse Plus column (100×2.1 mm i.d.; maintained at 35° C.) packed with a 1.8 μm C18 stationary phase.” left out

[5] = male, CD-1, mouse, intact prodrug, brain, 10 mg/kg eqv
[6] = male, CD-1, mouse, intact prodrug, plasma, 10 mg/kg eqv
[7] = CES1−/− (carboxylesterase 1 knockout), mouse, plasma

Structure (SMILES) | Stability in mouse (% remaining at 1h) Mean + Std Error, Plasma ([2]; CES1−/− mouse plasma, 37° C.) [%] | Stability in mouse (% remaining at 1h) Mean + Std Error, Liver [3] [%] | Stability in mouse (% remaining at 1h) Mean + Std Error, Brain [4] [%] | also measured
COc1cc(-c2nc(-c3ccccc3)c(-c3cccs3)[nH]2)cc(OC)c1OC(=O)c1ccc[n+](C)c1.[I-] [Compound 6] |  |  |  | brain levels of DPTIP ([1]; oral 10 mg/kg DPTIP equivalent): approximately 150 nM
CCCCCC(=O)Oc1c(OC)cc(-c2nc(-c3ccccc3)c(-c3cccs3)[nH]2)cc1OC [Compound P2, 2,6-Dimethoxy-4-(4-phenyl-5-(thiophen-2-yl)-1H-imidazol-2-yl)phenyl hexanoate] |  |  |  | Kp ([1]; male, CD-1, mouse, brain and plasma, oral, intact prodrug, 10 mg/kg eqv, read-out: Brain:Plasma ratio): 0.23; AUC [1, 5]: 1.66 nM·h; Tmax [1, 5]: 15 min; Cmax ([1]; male, CD-1, mouse, intact prodrug, brain, 10 mg/kg eqv, read-out: Cmax): 9.8 ± 0.6 nM; AUC [1, 6]: 7.04 nM·h; Tmax [1, 6]: 15 min; Cmax ([1]; male, CD-1, mouse, intact prodrug, plasma, 10 mg/kg eqv, read-out: Cmax): 51.1 ± 4.6 nM
CCCCCCCNC(=O)Oc1c(OC)cc(-c2nc(-c3ccccc3)c(-c3cccs3)[nH]2)cc1OC [Compound P9, 2,6-Dimethoxy-4-(5-phenyl-4-(thiophen-2-yl)-1H-imidazol-2-yl)phenyl heptylcarbamate] | 60 ± 4 | 97 ± 4 | 84 ± 4 | 
CCCCCN(C)C(=O)Oc1c(OC)cc(-c2nc(-c3ccccc3)c(-c3cccs3)[nH]2)cc1OC [Compound P7, 2,6-Dimethoxy-4-(5-phenyl-4-(thiophen-2-yl)-1H-imidazol-2-yl)phenyl methyl (pentyl) carbamate] | 50 ± 2 | 85 ± 3 |  | 
COc1cc(-c2nc(-c3ccccc3)c(-c3cccs3)[nH]2)cc(OC)c1OC(=O)C(C)(C)C [Compound P4, 2,6-Dimethoxy-4-(4-phenyl-5-(thiophen-2-yl)-1H-imidazol-2-yl)phenyl pivalate] |  |  | 93 ± 1 | 
COc1cc(-c2nc(-c3ccccc3)c(-c3cccs3)[nH]2)cc(OC)c1OC(=O)N1C2CCCC1CC2 [Compound P12, 2,6-Dimethoxy-4-(5-phenyl-4-(thiophen-2-yl)-1H-imidazol-2-yl)phenyl 8-azabicyclo[3.2.1]octane-8-carboxylate] |  |  |  | Stability in mouse (% remaining at 1h) Mean + Std Error, Plasma [2, 7]: 85 ± 9%
CCCCCNC(=O)Oc1c(OC)cc(-c2nc(-c3ccccc3)c(-c3cccs3)[nH]2)cc1OC [Compound P8, 2,6-Dimethoxy-4-(5-phenyl-4-(thiophen-2-yl)-1H-imidazol-2-yl)phenyl pentylcarbamate] | 60 ± 6 | 83 ± 2 |  | 
COc1cc(-c2nc(-c3ccccc3)c(-c3cccs3)[nH]2)cc(OC)c1OCOP(=O)(O)O [Compound P15, (2,6-Dimethoxy-4-(4-phenyl-5-(thiophen-2-yl)-1H-imidazol-2-yl)phenoxy) methyl dihydrogen phosphate] |  | 21 ± 0 |  | 
COc1cc(-c2nc(-c3ccccc3)c(-c3cccs3)[nH]2)cc(OC)c1OP(=O)(O)O [Compound P14, 2,6-Dimethoxy-4-(4-phenyl-5-(thiophen-2-yl)-1H-imidazol-2-yl)phenyl dihydrogen phosphate] | 91 ± 4 | 55 ± 1 | 102 ± 2 | 
CCCN(CCC)C(=O)Oc1c(OC)cc(-c2nc(-c3ccccc3)c(-c3cccs3)[nH]2)cc1OC [Compound P11, 2,6-Dimethoxy-4-(5-phenyl-4-(thiophen-2-yl)-1H-imidazol-2-yl)phenyl dipropylcarbamate] | 99 ± 2 | 62 ± 4 | 95 ± 4 | 
COc1cc(-c2nc(-c3ccccc3)c(-c3cccs3)[nH]2)cc(OC)c1OC(=O)N1C2CCC1CC(N1CCCCC1)C2 (centres unmarked) [Compound P13, 2,6-Dimethoxy-4-(5-phenyl-4-(thiophen-2-yl)-1H-imidazol-2-yl)phenyl 3-(piperidin-1-yl)-8-azabicyclo[3.2.1]octane-8-carboxylate] | 87 ± 2 | 78 ± 4 | 84 ± 1 | 
COc1cc(-c2nc(-c3ccccc3)c(-c3cccs3)[nH]2)cc(OC)c1OC(=O)N(C)C [Compound P5, 2,6-Dimethoxy-4-(4-phenyl-5-(thiophen-2-yl)-1H-imidazol-2-yl)phenyl dimethylcarbamate] | 96 ± 3 | 100 ± 1 | 100 ± 2 | Cmax ([1]; male, CD-1, mouse, in vivo, 10 mg/kg, oral 10 mg/kg DPTIP equivalent, read-out: plasma Cmax of intact prodrug): 4300 nM; improved oral absorption as intact versus DPTIP ([1]; plasma Cmax, oral 10 mg/kg DPTIP equivalent): 10 ×
CCC1CCCC(CC)N1C(=O)Oc1c(OC)cc(-c2nc(-c3ccccc3)c(-c3cccs3)[nH]2)cc1OC (centres unmarked) [Compound P10, 2,6-Dimethoxy-4-(5-phenyl-4-(thiophen-2-yl)-1H-imidazol-2-yl)phenyl 2,6-diethylpiperidine-1-carboxylate] |  | 51 ± 1 | 90 ± 1 | Stability in mouse (% remaining at 1h) Mean + Std Error, Plasma [2, 7]: 78 ± 5%
